The conditions of data set [1]: cited from earlier work.
Data set [2] concerns MPA bound to plasma proteins in normal human plasma (NHP). Put plainly: MPA enzyme immunoassay rates with releasing agents in Reagent A (NHP versus buffer), Example 2. The settings on record: for I (H-G) Buff Rate Span: 0 to 10 μg/mL MPA in buffer; for J (H-F) Buff-NHP Rate Diff.: 10 μg/mL MPA, closer to zero = better releasing effect; for G Buff with 0 μg/mL MPA Rate / H Buff with 10 μg/mL MPA Rate: 50 mM MES buffer pH 7.1; for G Buff with 0 μg/mL MPA Rate / H Buff with 10 μg/mL MPA Rate / E NHP with 0 μg/mL MPA Rate / F NHP with 10 μg/mL MPA Rate: ANS 0.25 mM, anisic acids 12.5 mM in Rgt A. As for the experimental part:
Rates were determined on a Cobas Mira Plus® instrument (Roche Diagnostics Systems, Inc., Branchburg, N.J.). The temperature was kept at 37° C. for the entire assay. Timings were carried out in cycles with each cycle being 25 seconds. In cycle 1, the first cycle, 75 μL of water and 3 μL of a sample were mixed with 155 μL of A diluent in a 0.6 cm path length cuvette. This mixture was incubated until the addition of Reagent B in cycle 7. […] In cycle 7, seventy-five μL of Reagent B followed by 20 μL of water was then added to the cuvette, mixed, and incubated until the end of cycle 25 at which time the assay was finished. During the assay, absorbance readings at 340 nm were made at the end of every cycle. A best linear fit was then made using only the 12 consecutive absorbance readings of cycles 14 through 25 versus time in minutes. The slope of this line was the rate.
In these experiments, the diluent for Reagent A (Rgt A) was made somewhat differently than that in Example 1. However, the composition was the same, except for component 7 (releasing agent, o-anisic acid) and component 10 (concentration of MPA antibody). Five diluents were prepared, four with one of each of the above agents and one control with no agent. First, a 2×solution was made in the manner described in Example 1 but which had only components 1 through 5 and 9 at twice the amounts listed. Next, for three of the diluents, each of the three anisic acid isomers was weighed to achieve a final molarity of 12.5 mM and predissolved in one quarter the final volume of water and a minimum amount of 6 N NaOH (approximately 6 drops per 0.2 grams anisic acid). For the fourth diluent, the agent, ANS, was weighed to give a 0.25 mM final concentration and added to one quarter the final volume of water. The fifth diluent, the control, had no releasing agent. To make each of these five diluents, the appropriate amounts of the 2×solution, the 1×amount of BSA, component 8, and the 1×amount of the Pluronic 25R solution, component 6, were combined. Four of these then received the appropriate agent. All were mixed well. Where necessary, pH adjustments were made as described previously and each preparation was brought to the final volume with deionized water to achieve 1× concentrations of components. Each of these A diluents was then filtered through a 0.2 micron filter. Final pH measurements on each were all between 5.5 to 5.7. For each of these five A diluents, a corresponding Reagent A was made by adding antibody to MPA for a final concentration of 6.5 μg/mL. Reagent B (Rgt B) was prepared as described in Example 1 except that component 20 was omitted and 0.1% BSA (Miles Diagnostics, Kankakee, Ill.) was substituted for BLG.
In a total of two runs the effects of each of the four agents relative to a control of no agent was examined with respect to (1) background absorbance at 340 nm, (2) the rate of a negative MPA sample, (3) the rate span between 0 and 10 μg/mL MPA, and (4) the closeness of rate matching of a 10 μg/mL MPA spike in NHP and in buffer. Both runs included the control Reagent A. The first run evaluated Reagent A with ANS while the second run evaluated Reagent A preparations containing the structural isomers of anisic acid.
MPA was spiked into NHP and buffer (Buff) to achieve a final concentration of 10 μg/mL MPA. Buffer in this example was 50 mM MES (2-[N-morpholino]ethanesulfonic acid, obtained from Sigma Chemical Company) with 0.1% (weight/volume) sodium azide, pH 7.1. As with PBS, this buffer has no protein and thus no protein binding of MPA can occur.
In both runs, the background absorbance at 340 nm for each Reagent A was measured in duplicate on a 230-μL combination of 3 μL negative NHP, 72 μL of deionized water, and 155 μL Reagent A. The cell path length was 0.6 cm. The average A340 (A=absorbance) values are found in Column C of Table 1. Duplicate rates were determined on the spiked and unspiked NHP and buffer similar to Example 1. […]

Data set [3] can be described thus: Background absorbance at 340 nm of Reagent A containing releasing agent. The settings on record: for C A 340 nm (background absorbance): 3 μL negative NHP + 72 μL water + 155 μL Reagent A, 0.6 cm path; for C A 340 nm (background absorbance) / D ΔA = agent - control ΔA 340 nm: ANS 0.25 mM, anisic acids 12.5 mM in Rgt A. In kind it is physicochemical. How it is done: In both runs, the background absorbance at 340 nm for each Reagent A was measured in duplicate on a 230-μL combination of 3 μL negative NHP, 72 μL of deionized water, and 155 μL Reagent A. The cell path length was 0.6 cm. […] These changes are noted as follows. Reagent B and water were added in cycle 4. The analysis was finished at the end of cycle 15. Rates were determined using the 5 absorbance readings of cycles 11 through 15.

Data set [4] can be described thus: Discoloration of Reagent A on exposure to light. The settings on record: agent formulated in Reagent A. In kind it is physicochemical.
Data set [5] has as its system MPA bound to plasma proteins in normal human plasma. As to the kind of experiment: MPA rates in plasma spikes in the presence of co-administered drugs and salicylate, with or without o-anisic acid, Example 4. As for the experimental part: In a separate study, the ability of o-anisic acid to eliminate the effect of salicylate on rates of MPA plasma spikes was compared. Two sets of antibody reagents (Reagent A) were prepared to the basic formulation described in Example 2 above. In one reagent, no releasing agent was added; in another reagent, o-anisic acid was added at 12.5 mM. A common Reagent B was prepared as described in Example 2. Rates for four levels of MPA spikes into plasma and a plasma control were measured with each reagent set. […] Salicylate was present at 659 μg/mL. Rates were determined as described in Example 2 above with the exception of the absorbance read window, which was extended to cycle 20 where the assay was ended. Rates were determined using the 10 consecutive absorbance readings of cycles 11 through 20.

For a further data set, the system named is MPA enzyme immunoassay. Put plainly: Effect of salicylate as releasing agent on total dose-response curve of MPA enzyme immunoassay. The settings on record: salicylate used as releasing agent. The text has this:
Salicylate is known to increase MPA free fraction in normal human plasma when present at concentrations that may be observed in chronic administration of aspirin (Nowak, infra). […] It is also known that 8-anilino-1-naphthalenesulfonic acid (ANS) functions as a releasing agent in immunoassays (Nerli, et al., Arch Int Physiol Biochim Biophys (1994) 102(1):5-8 and Seth, et al., Clin Chem (1975) 21(10):1406-1413. However, ANS has disadvantages because of its background absorbance at 340 nm and its susceptibility to light degradation. The background absorbance is particularly disadvantageous in enzyme immunoassays. However, ANS has been used in certain enzyme assays under conditions where its disadvantages can be tolerated.

The mark [6] stands for this setting: salicylate 659 μg/mL + NI drugs in plasma, no releasing agent in Reagent A.

For the molecule `COc1c(C)c2c(c(O)c1C/C=C(\C)CCC(=O)OCCN1CCOCC1)C(=O)OC2` [MPA-M, morpholinoethyl (E)-6-(1,3-dihydro-4-hydroxy-6-methoxy-7-methyl-3-oxo-5-isobenzofuranyl)-4-methyl-4-hexenoate], the “hydrolysis in vivo to MPA” value in data set [1] is “rapidly hydrolyzed in vivo to MPA”.

On to `COc1ccc(C(=O)O)cc1` [p-AA], for which, in data set [2], the “I (H-G) Buff Rate Span” value turned out to be 96.0 mA/min, the “J (H-F) Buff-NHP Rate Diff.” value was −2.1 mA/min, the “G Buff with 0 μg/mL MPA Rate” value was 182.3 mA/min and the “H Buff with 10 μg/mL MPA Rate” value is 278.3 mA/min. Further, in data set [2], the “E NHP with 0 μg/mL MPA Rate” value was found to be 182.7 mA/min and the “F NHP with 10 μg/mL MPA Rate” value is 280.4 mA/min. In data set [3], the “C A 340 nm (background absorbance)” value was 0.494 and the “D ΔA = agent - control ΔA 340 nm” value came to 0.008.

Regarding `COc1cccc(C(=O)O)c1` [m-AA], in data set [2], the “I (H-G) Buff Rate Span” value is on record as 90.3 mA/min, the “J (H-F) Buff-NHP Rate Diff.” value was −0.6 mA/min, the “G Buff with 0 μg/mL MPA Rate” value worked out at 189.4 mA/min and the “H Buff with 10 μg/mL MPA Rate” value was determined as 279.7 mA/min. For the same molecule, in data set [2], the “E NHP with 0 μg/mL MPA Rate” value came out at 188.1 mA/min and the “F NHP with 10 μg/mL MPA Rate” value is listed as 280.3 mA/min. In data set [3], the “C A 340 nm (background absorbance)” value is listed as 0.494 and the “D ΔA = agent - control ΔA 340 nm” value amounted to 0.008.

Regarding `O=S(=O)(O)c1cccc2cccc(Nc3ccccc3)c12` [ANS, 8-anilino-1-naphthalene sulfonic acid, reference compound], the “discoloration of Reagent A when exposed to light” value in data set [4] is recorded as “visibly discolored when exposed to light”. In data set [2], the “I (H-G) Buff Rate Span” value was determined as 120.2 mA/min, the “J (H-F) Buff-NHP Rate Diff.” value turned out to be 2.0 mA/min, the “G Buff with 0 μg/mL MPA Rate” value is 156.0 mA/min and the “H Buff with 10 μg/mL MPA Rate” value is 276.2 mA/min. Also, in data set [2], the “E NHP with 0 μg/mL MPA Rate” value is listed as 158.2 mA/min and the “F NHP with 10 μg/mL MPA Rate” value came out at 274.2 mA/min. In data set [3], the “C A 340 nm (background absorbance)” value is on record as 0.779 and the “D ΔA = agent - control ΔA 340 nm” value worked out at 0.322.

In the case of `O=C(O)c1ccccc1O` [salicylic acid, 2-hydroxybenzoic acid, reference compound], the “effect of salicylate on rates of MPA in normal human plasma” value in data set [5] (absence of releasing agents) is “increased rates of MPA in normal human plasma”. In data set [5] (setting [6]), the “Rate, MPA + NI + Salicylate, 0.5 μg/mL MPA, Antibody Reagent Only” value came to 157; the “Rate, MPA + NI + Salicylate, 2.5 μg/mL MPA, Antibody Reagent Only” value was 190; the “Rate, MPA + NI + Salicylate, 5 μg/mL MPA, Antibody Reagent Only” value is on record as 210; the “Rate, MPA + NI + Salicylate, 15 μg/mL MPA, Antibody Reagent Only” value stood at 250. Besides, in the data set on MPA enzyme immunoassay, the “decrease in the total dose-response curve in an MPA enzyme immunoassay” value was 25-50%. The “absorbance above the control background at 340 nm” value in data set [3] (25 mM in Reagent A) was 0.311 absorbance units.

(Values after US6887669B1, “Reagents for assays for ligands” (Dade Behring Marburg GmbH, priority 1996, dated 2005).)
